Experimental data: article PMC12368660, “Synergistic Ciprofloxacin-RWn Peptide Therapy Overcomes Drug Resistance in Gram-Negative Bacteria” (ACS Omega, 2025)
No end group written: not given here.

Experiments:
[1] = tested on: human embryonic kidney (HEK293) cells (ATCC CRL-1573); type: cell-based; conditions: 24 h
Description: HEK293 cells were cultured in Dulbecco's modified Eagle's medium (DMEM; Gibco, Thermo Fisher Scientific, Waltham, MA) supplemented with 10% (v/v) fetal bovine serum (FBS; Gibco) and 1% penicillin/streptomycin (Gibco) at 37 °C in a humidified atmosphere containing 5% CO2. Cells were seeded in 384-well plates at a density of 5 × 10^3 cells/well and incubated for 24 h. Compounds were then added to the wells at various concentrations. After a further 24 h incubation, resazurin (Sigma-Aldrich) was added to each well to a final concentration of 44 μM. After 4 h of incubation, fluorescence was measured at excitation/emission wavelengths of 560/590 nm using a Tecan […] microplate reader. Cell viability was expressed as a percentage relative to that of untreated control cells. […] All assays were conducted in duplicate (n = 2) across separate assay plates. […]

[2] = tested on: human umbilical vein endothelial (HUVEC) cells
[3] = cited from earlier work; for Solubility in 1x DPBS, estimated maximum concentration tested or achieved: pH 7.1
Description: Ciprofloxacin (CIP; Sigma-Aldrich, St. Louis, MO) and synthesized peptides were dissolved to prepare stock solutions. […] Solubility Test Results for Synthetic RWn Peptides. Peptide Ultrapure Waterᵃ 1x DPBS (pH 7.1 ± DMSOᵃ Formic Acid ID 0.1)ᵃ (HCOOH)ᵃ RW4 Dissolved (≤10 Dissolved (≤5 mg/mL) Dissolved (≤15 mg/mL) N/A mg/mL) RW4P Dissolved (≤2 Dissolved (≤2 mg/mL) Dissolved (≤10 mg/mL) N/A mg/mL) RW6 Dissolved (≤10 Undissolved Dissolved (≥10 mg/mL) N/A mg/mL) RW6P Dissolved (≤5 Undissolved Dissolved (≥10 mg/mL) N/A mg/mL) RW6-2P Undissolved Undissolved Dissolved (≤2 mg/mL) N/A RW8 Dissolved (≤5 Undissolved Dissolved (≤15 mg/mL) N/A mg/mL) RW8P Undissolved Undissolved Undissolved Dissolved (≤5 mg ...

[4] = tested on: human embryonic kidney (HEK293) cells (ATCC CRL-1573); design: method as in earlier work; conditions: cited from earlier work
[5] = tested on: human umbilical vein endothelial (HUVEC) cells; design: method as in earlier work; conditions: cited from earlier work

| Compound | HEK293 (CC50) [1] | HUVEC (CC50) [2] | Solubility in DMSO, estimated maximum concentration tested or achieved [3] | Solubility in ultrapure water, estimated maximum concentration tested or achieved [3] | Solubility in 1x DPBS, estimated maximum concentration tested or achieved [3] | concentration without detectable cytotoxicity, HEK293 [4] | concentration without detectable cytotoxicity, HUVEC [5] | Solubility in formic acid (HCOOH), estimated maximum concentration tested or achieved [3] |
| --- | --- | --- | --- | --- | --- | --- | --- | --- |
| N=C(N)NCCC[C@H](NC(=O)[C@H](Cc1c[nH]c2ccccc12)NC(=O)[C@H](CCCNC(=N)N)NC(=O)[C@H](Cc1c[nH]c2ccccc12)NC(=O)[C@H](CCCNC(=N)N)NC(=O)[C@H](Cc1c[nH]c2ccccc12)NC(=O)[C@H](CCCNC(=N)N)NC(=O)[C@H](Cc1c[nH]c2ccccc12)NC(=O)[C@H](CCCNC(=N)N)NC(=O)[C@H](Cc1c[nH]c2ccccc12)NC(=O)[C@@H](N)CCCNC(=N)N)C(=O)N[C@@H](Cc1c[nH]c2ccccc12)C(=O)O [RW6] | >32 µg/mL | >32 µg/mL | ≥ 10000 µg/mL | ≤ 10000 µg/mL |  |  |  |  |
| RWRWPRWRW-NH2 [RW4P] |  |  | ≤ 10000 µg/mL | ≤ 2000 µg/mL | ≤ 2000 µg/mL |  |  |  |
| RWRWPRWRWPRWRW-NH2 [RW6–2P] |  |  | ≤ 2000 µg/mL |  |  |  |  |  |
| RWRWRWPRWRWRW-NH2 [RW6P] |  |  | ≥ 10000 µg/mL | ≤ 5000 µg/mL |  |  |  |  |
| RWRWRWRW [RW4] | >32 µg/mL | >32 µg/mL | ≤ 15000 µg/mL | ≤ 10000 µg/mL | ≤ 5000 µg/mL | > 32000 ng/mL | > 32000 ng/mL |  |
| RWRWRWRWPRWRWRWRW-NH2 [RW8P] |  |  |  |  |  |  |  | ≤ 5000 µg/mL |
| RWRWRWRWRWRWRWRW [RW8, arginine-tryptophan-rich antimicrobial peptide, 16 AA] |  |  | ≤ 15000 µg/mL | ≤ 5000 µg/mL |  |  |  |  |
